Publication PMC8245078, “Development of novel benzofuran-isatin conjugates as potential antiproliferative agents with apoptosis inducing mechanism in Colon cancer” (Journal of Enzyme Inhibition and Medicinal Chemistry, 2021)

How the values were obtained:
Renal Cancer subpanel = format: cell-based, human
HS 578 T = format: cell-based; conditions: five-dose test
SW-620 = format: cell-based; conditions: SW-620, five-dose test
SF-539 = format: cell-based, human; conditions: SF-539, five-dose test
PC-3 = format: cell-based; conditions: PC-3, five-dose test
SK-MEL-2 = format: cell-based; conditions: SK-MEL-2, five-dose test
CNS Cancer subpanel = format: cell-based, human
NCI-H226 = format: cell-based; conditions: Homo sapiens, NCI-H226, five-dose test
HOP-62 = format: cell-based; conditions: HOP-62, five-dose test
NCI/ADR-RES = format: cell-based; conditions: Homo sapiens, five-dose test
SF-268 = format: cell-based; conditions: SF-268, five-dose test
Colon Cancer subpanel = format: cell-based, human
BT-549 = format: cell-based; conditions: BT-549, five-dose test
Ovarian Cancer subpanel = format: cell-based, human
[1] = Homo sapiens, read-out: LC50 (the source's name)

**Q.** How did the GI50 (Renal Cancer subpanel; Homo sapiens, Renal Cancer subpanel, read-out: MG-MID (GI50 average of the subpanel)) turn out when `COc1ccc2c(c1)/C(=N/NC(=O)c1oc3ccccc3c1C)C(=O)N2` [Compound 5d] was run?
**A.** 1.98 µM

**Q.** And the Selectivity index (Renal Cancer subpanel; full panel MID / subpanel MID, Renal Cancer)?
**A.** 1.26

**Q.** What about the GI50 (HS 578 T; Homo sapiens) of the same compound?
**A.** 2.41 µM

**Q.** What about the LC50 (HS 578 T; Homo sapiens) of the same compound?
**A.** > 100 µM

**Q.** And the TGI (HS 578 T)?
**A.** 7.72 µM

**Q.** What about the CC50 (SW-620; [1]) of the same compound?
**A.** > 100 µM

**Q.** And the TGI (SW-620)?
**A.** >100 µM

**Q.** And the GI50 (SF-539; Homo sapiens)?
**A.** 1.66 µM

**Q.** What about the TGI (SF-539) of the same compound?
**A.** 3.16 µM

**Q.** And the CC50 (PC-3; [1])?
**A.** > 100 µM

**Q.** And the TGI (PC-3)?
**A.** >100 µM

**Q.** What about the GI50 (SK-MEL-2; Homo sapiens) of the same compound?
**A.** 2.56 µM

**Q.** And the LC50 (SK-MEL-2; Homo sapiens)?
**A.** 54.7 µM

**Q.** What about the TGI (SK-MEL-2) of the same compound?
**A.** 6.62 µM

**Q.** And the GI50 (CNS Cancer subpanel; Homo sapiens, CNS Cancer subpanel, read-out: MG-MID (GI50 average of the subpanel))?
**A.** 2.6 µM

**Q.** And the Selectivity index (CNS Cancer subpanel; full panel MID / subpanel MID, CNS Cancer)?
**A.** 0.96

**Q.** What about the GI50 (NCI-H226) of the same compound?
**A.** 2.19 µM

**Q.** And the CC50 (NCI-H226; read-out: LC50 (the source's name))?
**A.** > 100 µM

**Q.** What about the TGI (HOP-62) of the same compound?
**A.** 4.02 µM

**Q.** What about the GI50 (HOP-62; Homo sapiens) of the same compound?
**A.** 1.92 µM

**Q.** What about the CC50 (HOP-62; [1]) of the same compound?
**A.** 8.44 µM

**Q.** What about the GI50 (NCI/ADR-RES) of the same compound?
**A.** 2.47 µM

**Q.** And the LC50 (NCI/ADR-RES)?
**A.** > 100 µM

**Q.** What about the GI50 (SF-268; Homo sapiens) of the same compound?
**A.** 5.18 µM

**Q.** And the CC50 (SF-268; [1])?
**A.** > 100 µM

**Q.** And the TGI (SF-268)?
**A.** 56.8 µM

**Q.** What about the GI50 (Colon Cancer subpanel; Homo sapiens, Colon Cancer subpanel, read-out: MG-MID (GI50 average of the subpanel)) of the same compound?
**A.** 1.92 µM

**Q.** What about the Selectivity index (Colon Cancer subpanel; full panel MID / subpanel MID, Colon Cancer) of the same compound?
**A.** 1.30

**Q.** What about the TGI (BT-549) of the same compound?
**A.** 33.7 µM

**Q.** What about the GI50 (BT-549; Homo sapiens) of the same compound?
**A.** 5.38 µM

**Q.** And the LC50 (concentration causing 50% net cell kill) (BT-549; Homo sapiens)?
**A.** > 100 µM

**Q.** And the GI50 (Ovarian Cancer subpanel; Homo sapiens, Ovarian Cancer subpanel, read-out: MG-MID (GI50 average of the subpanel))?
**A.** 2.29 µM

**Q.** What about the Selectivity index (Ovarian Cancer subpanel; full panel MID / subpanel MID, Ovarian Cancer) of the same compound?
**A.** 1.09
